Assays:
[1] = biological target: MAPK14 (human) (UniProt Q16539); assay: Inhibition of MAPK14 Kinase Activity
[2] = test system: MAPK14 (mouse); assay: Assessment of MAPK14 Kinase Activity in RAW 264.7 Cells

Sequence of MAPK14 (human) (Q16539 whole entry, looked up): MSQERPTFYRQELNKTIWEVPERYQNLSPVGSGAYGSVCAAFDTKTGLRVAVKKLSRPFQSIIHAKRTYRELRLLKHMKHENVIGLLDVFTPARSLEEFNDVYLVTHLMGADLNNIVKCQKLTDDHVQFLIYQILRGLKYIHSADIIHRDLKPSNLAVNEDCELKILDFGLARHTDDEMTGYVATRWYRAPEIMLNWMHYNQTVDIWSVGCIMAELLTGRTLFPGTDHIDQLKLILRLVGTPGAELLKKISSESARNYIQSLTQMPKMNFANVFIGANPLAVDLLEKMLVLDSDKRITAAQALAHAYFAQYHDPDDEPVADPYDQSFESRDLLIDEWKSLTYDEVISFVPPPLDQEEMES

Row | SMILES | IC50 [1] | IC50 [2]
1 | CC(C)(C)Cn1c(N)nc2ccc(-c3[nH]c(-c4c(F)cccc4F)nc3-c3ccc(F)cc3)nc21 | 7.2 nM | –
2 | CC(C)Cn1c(N)nc2ccc(-c3[nH]c(C(C)(C)C)nc3-c3ccccc3)nc21 | 5.1 nM | 66.4 nM
3 | CC(C)(C)Cn1c(N)nc2ccc(-c3[nH]c(-c4c(F)cccc4Cl)nc3-c3ccccc3)nc21 | – | 39 nM
4 | CC(C)Cn1c(N)nc2ccc(-c3[nH]c(-c4c(Cl)cccc4Cl)nc3-c3ccccc3)nc21 | 3.7 nM | 64.7 nM
5 | CC(C)Cn1c(N)nc2ccc(-c3[nH]c(C(C)(C)C)nc3-c3ccc(F)cc3F)nc21 | – | 41.8 nM
6 | CC(C)(C)Cn1c(N)nc2ccc(-c3[nH]c(C(C)(C)C)nc3-c3ccc(F)cc3)nc21 | 7 nM | 34.3 nM

Other lines, results leading:

Row | IC50 [1] | IC50 [2] | SMILES
7 | – | 31.2 nM | CC(C)Cn1c(N)nc2ccc(-c3[nH]c(-c4c(Cl)cccc4Cl)nc3-c3ccc(F)cc3F)nc21
8 | 3.6 nM | 23 nM | CC(C)(C)Cn1c(N)nc2ccc(-c3[nH]c(-c4c(Cl)cccc4Cl)nc3-c3ccc(F)cc3)nc21
9 | – | 20.7 nM | CC(C)(C)Cn1c(N)nc2ccc(-c3[nH]c(C(C)(C)C)nc3-c3ccc(F)cc3F)nc21
